# Tests used:
# Experiment in all cases: relative viability (nuclei count vs DMSO), 5 days (fraction); higher = more cells survive
# [1] = compound: COc1cc2ncn(-c3cc(OCc4ccccc4C(F)(F)F)c(C(N)=O)s3)c2cc1OC
# In short: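 Acceptance criteria were a control CV below 25% and at least one doubling per plate. Lung cancer cell lines in 1536-well plates got five library-drug doses (not always all listed) √10 apart by pinning and were left 5 days with no medium change. Viability divides treated-well nuclei by vehicle-well nuclei and is the median across plates. Nuclei were counted by MetaXpress from 4× Hoechst images.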
# [2] = compound: COc1cc2ncn(-c3cc(OCc4ccccc4C(F)(F)F)c(C(N)=O)s3)c2cc1OC + CC(=O)Nc1cccc(-n2c(=O)n(C3CC3)c(=O)c3c(Nc4ccc(I)cc4F)n(C)c(=O)c(C)c32)c1 [Trametinib] (partner 0.02 µM)
# In short: (§1)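 One day after seeding in 1536-well plates, lung cancer cell lines were dosed by pin tool. Dosing was either single-drug or a fixed anchor-drug dose plus five library-drug doses (not always all listed) in √10 steps. After 5 days, nuclei were stained in one fix-and-stain step and counted on 4× images, and relative viability is the nuclei count of treated wells over that of vehicle wells, given as the median of duplicate plates.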
# [3] = compound: COc1cc2ncn(-c3cc(OCc4ccccc4C(F)(F)F)c(C(N)=O)s3)c2cc1OC + CC(=O)c1c(C)c2cnc(Nc3ccc(N4CCNCC4)cn3)nc2n(C2CCCC2)c1=O [Palbociclib] (partner 0.5 µM)
# In short: as §1
# [4] = compound: COc1cc2ncn(-c3cc(OCc4ccccc4C(F)(F)F)c(C(N)=O)s3)c2cc1OC + CCNC(=O)c1noc(-c2cc(C(C)C)c(O)cc2O)c1-c1ccc(CN2CCOCC2)cc1 [Luminespib] (partner 0.01 µM)
# In short: as §1
# [5] = compound: COc1cc2ncn(-c3cc(OCc4ccccc4C(F)(F)F)c(C(N)=O)s3)c2cc1OC + COc1cc2c(Oc3ccc(NC(=O)C4(C(=O)Nc5ccc(F)cc5)CC4)cc3F)ccnc2cc1OCCCN1CCOCC1 [Foretinib] (partner 0.25 µM)
# In short: as §1
# [6] = compound: COc1cc2ncn(-c3cc(OCc4ccccc4C(F)(F)F)c(C(N)=O)s3)c2cc1OC + COc1cccc2cc(-c3nc([C@H]4CC[C@H](C(=O)O)CC4)n4ncnc(N)c34)[nH]c12 [OSI-027] (partner 0.5 µM)
# In short: as §1
# [7] = compound: COc1cc2ncn(-c3cc(OCc4ccccc4C(F)(F)F)c(C(N)=O)s3)c2cc1OC + Cc1cc(Nc2cc(N3CCN(C)CC3)nc(Sc3ccc(NC(=O)C4CC4)cc3)n2)n[nH]1 [Tozasertib] (partner 0.1 µM)
# In short: as §1
# [8] = compound: COc1cc2ncn(-c3cc(OCc4ccccc4C(F)(F)F)c(C(N)=O)s3)c2cc1OC + Cc1nc(Nc2ncc(C(=O)Nc3c(C)cccc3Cl)s2)cc(N2CCN(CCO)CC2)n1 [Dasatinib] (partner 0.075 µM)
# In short: as §1
# [9] = compound: COc1cc2ncn(-c3cc(OCc4ccccc4C(F)(F)F)c(C(N)=O)s3)c2cc1OC + N=C(N)NC(=N)NCCc1ccccc1 [Phenformin] (partner 250 µM)
# In short: as §1
# [10] = compound: COc1cc2ncn(-c3cc(OCc4ccccc4C(F)(F)F)c(C(N)=O)s3)c2cc1OC + NC(=O)Nc1cc(-c2cccc(F)c2)sc1C(=O)N[C@H]1CCCNC1 [AZD7762] (partner 0.2 µM)
# In short: as §1
# [11] = compound: COc1cc2ncn(-c3cc(OCc4ccccc4C(F)(F)F)c(C(N)=O)s3)c2cc1OC + Nc1nc2[nH]cc(CCc3ccc(C(=O)N[C@@H](CCC(=O)O)C(=O)O)cc3)c2c(=O)[nH]1 [Pemetrexed] (partner 0.2 µM)
# In short: as §1
# [12] = compound: COc1cc2ncn(-c3cc(OCc4ccccc4C(F)(F)F)c(C(N)=O)s3)c2cc1OC + Nc1ncn([C@H]2C[C@H](O)[C@@H](CO)O2)c(=O)n1 [Decitabine] (partner 2 µM)
# In short: as §1
# [13] = compound: COc1cc2ncn(-c3cc(OCc4ccccc4C(F)(F)F)c(C(N)=O)s3)c2cc1OC + O=C(CCCCCCC(=O)Nc1ccccc1)NO [Vorinostat] (partner 1 µM)
# In short: as §1
# [14] = compound: COc1cc2ncn(-c3cc(OCc4ccccc4C(F)(F)F)c(C(N)=O)s3)c2cc1OC + O=C(c1cc(Cc2n[nH]c(=O)c3ccccc23)ccc1F)N1CCN(C(=O)C2CC2)CC1 [Olaparib] (partner 8 µM)
# In short: as §1
cell line,measurement,setting,value
SW 900,relative viability,[1]; 0.05 µM,0.91
same,relative viability,[1]; 0.1581 µM,0.827
same,relative viability,[1]; 0.5 µM,0.638
same,relative viability,[1]; 1.581 µM,0.275
same,relative viability,[1]; 5 µM,0.176
same,relative viability,[2]; first compound 0.05 µM,0.639
same,relative viability,[2]; first compound 0.1581 µM,0.778
same,relative viability,[2]; first compound 0.5 µM,0.649
same,relative viability,[2]; first compound 1.581 µM,0.433
same,relative viability,[2]; first compound 5 µM,0.124
same,relative viability,[3]; first compound 0.05 µM,0.478
same,relative viability,[3]; first compound 0.1581 µM,0.5
same,relative viability,[3]; first compound 0.5 µM,0.499
same,relative viability,[3]; first compound 1.581 µM,0.399
same,relative viability,[3]; first compound 5 µM,0.257
same,relative viability,[4]; first compound 0.05 µM,0.183
same,relative viability,[4]; first compound 0.1581 µM,0.165
same,relative viability,[4]; first compound 0.5 µM,0.205
same,relative viability,[4]; first compound 1.581 µM,0.171
same,relative viability,[4]; first compound 5 µM,0.16
same,relative viability,[5]; first compound 0.05 µM,0.857
same,relative viability,[5]; first compound 0.1581 µM,0.818
same,relative viability,[5]; first compound 0.5 µM,0.7
same,relative viability,[5]; first compound 1.581 µM,0.41
same,relative viability,[5]; first compound 5 µM,0.169
same,relative viability,[6]; first compound 0.05 µM,0.59
same,relative viability,[6]; first compound 0.1581 µM,0.618
same,relative viability,[6]; first compound 0.5 µM,0.364
same,relative viability,[6]; first compound 1.581 µM,0.173
same,relative viability,[6]; first compound 5 µM,0.093
same,relative viability,[7]; first compound 0.05 µM,0.685
same,relative viability,[7]; first compound 0.1581 µM,0.661
same,relative viability,[7]; first compound 0.5 µM,0.277
same,relative viability,[7]; first compound 1.581 µM,0.253
same,relative viability,[7]; first compound 5 µM,0.244
same,relative viability,[8]; first compound 0.05 µM,0.545
same,relative viability,[8]; first compound 0.1581 µM,0.604
same,relative viability,[8]; first compound 0.5 µM,0.5
same,relative viability,[8]; first compound 1.581 µM,0.328
same,relative viability,[8]; first compound 5 µM,0.0938
same,relative viability,[9]; first compound 0.05 µM,0.538
same,relative viability,[9]; first compound 0.1581 µM,0.503
same,relative viability,[9]; first compound 0.5 µM,0.53
same,relative viability,[9]; first compound 1.581 µM,0.33
same,relative viability,[9]; first compound 5 µM,0.14
same,relative viability,[10]; first compound 0.05 µM,0.575
same,relative viability,[10]; first compound 0.1581 µM,0.538
same,relative viability,[10]; first compound 0.5 µM,0.565
same,relative viability,[10]; first compound 1.581 µM,0.279
same,relative viability,[10]; first compound 5 µM,0.156
same,relative viability,[11]; first compound 0.05 µM,0.453
same,relative viability,[11]; first compound 0.1581 µM,0.544
same,relative viability,[11]; first compound 0.5 µM,0.408
same,relative viability,[11]; first compound 1.581 µM,0.254
same,relative viability,[11]; first compound 5 µM,0.187
same,relative viability,[12]; first compound 0.05 µM,0.482
same,relative viability,[12]; first compound 0.1581 µM,0.447
same,relative viability,[12]; first compound 0.5 µM,0.425
same,relative viability,[12]; first compound 1.581 µM,0.354
same,relative viability,[12]; first compound 5 µM,0.256
same,relative viability,[13]; first compound 0.05 µM,0.483
same,relative viability,[13]; first compound 0.1581 µM,0.417
same,relative viability,[13]; first compound 0.5 µM,0.416
same,relative viability,[13]; first compound 1.581 µM,0.287
same,relative viability,[13]; first compound 5 µM,0.154
same,relative viability,[14]; first compound 0.05 µM,0.778
same,relative viability,[14]; first compound 0.1581 µM,0.892
same,relative viability,[14]; first compound 0.5 µM,0.601
same,relative viability,[14]; first compound 1.581 µM,0.201
same,relative viability,[14]; first compound 5 µM,0.171

# From the supplement of paper PMC10307832
